From patent US12186284B2, “Antimicrobial formulations for the treatment of veterinary hoof infections” (Provita Eurotech Ltd, priority 2016, dated 2025)

Tests used:
[1] = test system: Escherichia coli (NCTC12241); test: Rate of kill assay based on BS EN 1276:1997, clean and dirty conditions; format: cell-based; conditions: 3× MIC (0.375% v/v; CS 0.15% w/v)
Text: The rate of kill assay is based on the British and European standard test conditions BS EN 1276:1997.
The initial inoculum of microorganism ranged between 10^6-10^7 colony forming units per mL.

[2] = test system: Escherichia coli (NCTC12241); test: Minimum inhibitory concentration (MIC); format: cell-based; conditions: three times the minimum inhibitory concentration

O=S(=O)([O-])[O-].[Cu+2] [CS, copper sulphate]
Surviving Bacterial Count (cfu/mL) under clean and dirty conditions ([1]; contact time 0 s, clean (no bovine albumin)): 3.2 × 10^6 cfu/mL
Surviving Bacterial Count (cfu/mL) under clean and dirty conditions ([1]; contact time 0 s, dirty (0.3% bovine albumin)): 1.4 × 10^7 cfu/mL
Surviving Bacterial Count (cfu/mL) under clean and dirty conditions ([1]; contact time 30 s, clean (no bovine albumin)): 1.7 × 10^6 cfu/mL
Surviving Bacterial Count (cfu/mL) under clean and dirty conditions ([1]; contact time 30 s, dirty (0.3% bovine albumin)): 1.1 × 10^7 cfu/mL
Surviving Bacterial Count (cfu/mL) under clean and dirty conditions ([1]; contact time 60 s, clean (no bovine albumin)): 6.2 × 10^5 cfu/mL
Surviving Bacterial Count (cfu/mL) under clean and dirty conditions ([1]; contact time 60 s, dirty (0.3% bovine albumin)): 9.7 × 10^6 cfu/mL
Surviving Bacterial Count (cfu/mL) under clean and dirty conditions ([1]; contact time 120 s, clean (no bovine albumin)): 3.3 × 10^5 cfu/mL
Surviving Bacterial Count (cfu/mL) under clean and dirty conditions ([1]; contact time 120 s, dirty (0.3% bovine albumin)): 5.2 × 10^6 cfu/mL
Surviving Bacterial Count (cfu/mL) under clean and dirty conditions ([1]; contact time 300 s, clean (no bovine albumin)): 5.0 × 10^3 cfu/mL
Surviving Bacterial Count (cfu/mL) under clean and dirty conditions ([1]; contact time 300 s, dirty (0.3% bovine albumin)): 3.2 × 10^4 cfu/mL
3MIC [2]: 0.15%
